Experimental findings from US20040043959A1, “Combination therapies for treating methylthioadenosine phosphorylase deficient cells” (priority 2002, published 2004) are described below.

This test concerns the target T1, Human MTAP (Homo sapiens, UniProt Q13126).
T1 construct: six-histidine tag (His6) (N); made in house; host or cells: E. coli BL21 DE3
T1 sequence (Q13126 1-283): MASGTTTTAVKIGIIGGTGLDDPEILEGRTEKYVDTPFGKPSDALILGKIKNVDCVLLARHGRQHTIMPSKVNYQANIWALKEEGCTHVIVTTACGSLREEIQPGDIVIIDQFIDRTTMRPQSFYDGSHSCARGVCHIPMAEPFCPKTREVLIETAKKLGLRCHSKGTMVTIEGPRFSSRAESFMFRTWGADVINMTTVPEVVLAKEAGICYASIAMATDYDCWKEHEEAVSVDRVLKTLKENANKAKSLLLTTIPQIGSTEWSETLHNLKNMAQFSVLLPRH
Briefly: MTAP substrate assay, coupled spectrophotometric (adenine, xanthine oxidase). The format is biochemical. The note with it: 2 nM MTAP; for activity at 50 µM: 10 min, compound 50 uM, relative to MTA at 50 uM, read-out: MT-A—50: initial velocity as a percentage of the initial velocity with MTA as substrate; for MT-A—10: initial velocity as a percentage of the initial velocity with MTA as substrate: compound 10 uM, relative to MTA at 10 uM. In outline: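 Detection was xanthine oxidase-coupled (0.8 units/ml), reading adenine-derived absorbance at 305 nm over 10 min in potassium phosphate/DTT buffer at 37° C, with N-His6 enzyme purified from E. coli.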

As to `Nc1ncnc2c1ncn2[C@@H]1O[C@H](CSc2ccccc2[N+](=O)[O-])[C@@H](O)[C@H]1O` [2(G)(91), (2R, 3R, 4S, 5S)-2-(6-amino-9H-purin-9-yl)-5-{[(2-nitrophenyl)thio]-methyl}tetrahydrofuran-3,4-diol], the activity at 50 µM came to 5% and the “MT-A—10: initial velocity as a percentage of the initial velocity with MTA as substrate” value was 5%.

On to `COC(=O)CCSC[C@H]1O[C@@H](n2cnc3c(N)ncnc32)[C@H](O)[C@@H]1O` [2(G)(92), methyl 3-({[(2S, 3S, 4R, 5R)-5-(6-amino-9H-purin-9-yl)-dihydroxytetra-hydrofuran-2-yl]-methyl}thio)propanoate], for which the activity at 50 µM worked out at 36% and the “MT-A—10: initial velocity as a percentage of the initial velocity with MTA as substrate” value is recorded as 27%.

Turning to `Nc1ncnc2c1ncn2[C@@H]1O[C@H](CSCc2csc3ccccc23)[C@@H](O)[C@H]1O` [2(G)(93), (2R, 3R, 4S, 5S)-2-(6-amino-9H-purin-9-yl)-5-{[(1-benzothien-3-ylmethyl)thio]methyl}tetrahydrofuran-3,4-diol], the activity at 50 µM came out at 17% and the “MT-A—10: initial velocity as a percentage of the initial velocity with MTA as substrate” value was determined as 18%.

`Nc1ncnc2c1ncn2[C@@H]1O[C@H](CSc2nccnc2CCc2ccccc2)[C@@H](O)[C@H]1O` [2(G)(94), (2R, 3R, 4S, 5S)-2-(6-amino-9H-purin-9-yl)-5-({[3-(2-phenylethyl)-pyrazin-2-yl]thio}methyl)tetrahydrofuran-3,4-diol]: the activity at 50 µM came to 5% and the “MT-A—10: initial velocity as a percentage of the initial velocity with MTA as substrate” value is 5%.

For the compound `Nc1ncnc2c1ncn2[C@@H]1O[C@H](CSc2ccc(C(=O)O)cc2)[C@@H](O)[C@H]1O` [2(G)(95), 4-({[(2S, 3S, 4R, 5R)-5-(6-amino-9H-purin-9-yl)-3,4-dihydroxytetrahydro-furan-2-yl]methyl}thio)-benzoic acid], the activity at 50 µM worked out at 7% and the “MT-A—10: initial velocity as a percentage of the initial velocity with MTA as substrate” value was 7%.

In the case of `Nc1ncnc2c1ncn2[C@@H]1O[C@H](CSc2ccccc2Cl)[C@@H](O)[C@H]1O` [2(G)(96), (2R, 3R, 4S, 5S)-2-(6-amino-9H-purin-9-yl)-5-{((2-chlorophenyl)thio]-methyl}tetrahydrofuran-3,4-diol], the activity at 50 µM amounted to 6% and the “MT-A—10: initial velocity as a percentage of the initial velocity with MTA as substrate” value came out at 5%.

On to `Nc1ncnc2c1ncn2[C@@H]1O[C@H](CSc2cc(Cl)ccc2Cl)[C@@H](O)[C@H]1O` [2(G)(97), (2R, 3R, 4S, 5S)-2-(6-amino-9H-purin-9-yl)-5-{[(2,5-dichlorophenyl)-thio]methyl}tetrahydro-furan-3,4-diol], for which the activity at 50 µM came out at 6% and the “MT-A—10: initial velocity as a percentage of the initial velocity with MTA as substrate” value was 5%.

As for `Nc1ncnc2c1ncn2[C@@H]1O[C@H](CSc2cccc(Cl)c2)[C@@H](O)[C@H]1O` [2(G)(98), (2R, 3R, 4S, 5S)-2-(6-amino-9H-purin-9-yl)-5-{[(3-chlorophenyl)thio]-methyl}tetrahydrofuran-3,4-diol], the activity at 50 µM turned out to be 18% and the “MT-A—10: initial velocity as a percentage of the initial velocity with MTA as substrate” value is 20%.

In the case of `Nc1ncnc2c1ncn2[C@@H]1O[C@H](CSc2cccc(C(F)(F)F)c2)[C@@H](O)[C@H]1O` [2(G)(99), (2R, 3R,4S, 5S)-2-(6-amino-9H-purin-9-yl)-5-({[3-(trifluoromethyl)-phenyl]thio}methyl)-tetrahydrofuran-3,4-diol], the activity at 50 µM came out at 18% and the “MT-A—10: initial velocity as a percentage of the initial velocity with MTA as substrate” value amounted to 17%.

On to `Cc1nccnc1SC[C@H]1O[C@@H](n2cnc3c(N)ncnc32)[C@H](O)[C@@H]1O` [2(G)(100), (2R, 3R, 4S, 5S)-2-(6-amino-9H-purin-9-yl)-5-{[(3-methylpyrazin-2-yl)thio]methyl}tetrahydro-furan-3,4-diol], for which the activity at 50 µM was determined as 10% and the “MT-A—10: initial velocity as a percentage of the initial velocity with MTA as substrate” value is given as 7%.

In the case of `Nc1ncnc2c1ncn2[C@@H]1O[C@H](CSc2cccc(O)c2)[C@@H](O)[C@H]1O` [2(G)(101), (2R, 3R, 4S, 5S)-2-(6-amino-9H-purin-9-yl)-5-{[(3-hydroxyphenyl)-thio]methyl}tetrahydro-furan-3,4-diol], the activity at 50 µM is 38% and the “MT-A—10: initial velocity as a percentage of the initial velocity with MTA as substrate” value was 36%.

Take `Nc1ncnc2c1ncn2[C@@H]1O[C@H](CSc2c(Cl)cccc2Cl)[C@@H](O)[C@H]1O` [2(G)(102), (2R, 3R, 4S, 5S)-2-(6-amino-9H-purin-9-yl)-5-{[(2,6-dichIorophenyl)-thio]methyl}tetrahydro-furan-3,4-diol]: the activity at 50 µM turned out to be 3% and the “MT-A—10: initial velocity as a percentage of the initial velocity with MTA as substrate” value worked out at 2%.

Consider `Nc1ncnc2c1ncn2[C@@H]1O[C@H](CSc2ccc(C(F)(F)F)cc2[N+](=O)[O-])[C@@H](O)[C@H]1O` [2(G)(103), (2R, 3R, 4S, 5S)-2-(6-amino-9H-purin-9-yl)-5-({[2-nitro-4-(trifluoromethyl)phenyl]thio}methyl)tetrahydro-furan-3,4-diol], for which the activity at 50 µM was 4% and the “MT-A—10: initial velocity as a percentage of the initial velocity with MTA as substrate” value stood at 3%.

Regarding `Nc1ncnc2c1ncn2[C@@H]1O[C@H](CSCC(=O)Nc2ccccc2)[C@@H](O)[C@H]1O` [2(G)(104), 2-({[(2S, 3S, 4R, 5R)-5-(6-amino-9H-purin-9-yl)-3,4-dihydroxytetrahydro-furan-2-yl]methyl}thio)-N-phenylacetamide], the activity at 50 µM is 15% and the “MT-A—10: initial velocity as a percentage of the initial velocity with MTA as substrate” value is recorded as 5%.

Consider `Nc1ncnc2c1ncn2[C@@H]1O[C@H](CSc2ccc([N+](=O)[O-])cn2)[C@@H](O)[C@H]1O` [2(G)(105), (2R, 3R, 4S, 5S)-2-(6-amino-9H-purin-9-yl)-5-{[(5-nitropyridin-2-yl)thio]methyl}tetrahydro-furan-3,4-diol], for which the activity at 50 µM turned out to be 21% and the “MT-A—10: initial velocity as a percentage of the initial velocity with MTA as substrate” value is on record as 17%.

With `Nc1ncnc2c1ncn2[C@@H]1O[C@H](CSc2c[nH]c3ccccc23)[C@@H](O)[C@H]1O` [2(G)(106), (2R, 3R, 4S, 5S)-2-(6-amino-9H-purin-9-yl)-5-[(1H-indol-3-ylthio)-methyl]-tetrahydrofuran-3,4-diol], the activity at 50 µM was found to be 3% and the “MT-A—10: initial velocity as a percentage of the initial velocity with MTA as substrate” value is on record as 6%.

On to `COC(=O)c1ccccc1SC[C@H]1O[C@@H](n2cnc3c(N)ncnc32)[C@H](O)[C@@H]1O` [2(G)(107), methyl 2-({[(2S, 3S, 4R, 5R)-5-(6-amino-9H-purin-9-yl)-3,4-dihydroxy-tetrahydrofuran-2-yl]-methyl}thio)-benzoate], for which the activity at 50 µM was determined as 2% and the “MT-A—10: initial velocity as a percentage of the initial velocity with MTA as substrate” value came out at 4%.

With `Nc1ncnc2c1ncn2[C@@H]1O[C@H](CSc2ccc(/C=C/C(=O)O)cc2)[C@@H](O)[C@H]1O` [2(G)(108), (2E)-3-[4-({[(2S, 3S, 4R, 5R)-5-(6-amino-9H-purin-9-yl)-3,4-dihydroxytetra-hydrofuran-2-yl]methyl}thio)phenyl]acrylic acid], the activity at 50 µM amounted to 19% and the “MT-A—10: initial velocity as a percentage of the initial velocity with MTA as substrate” value was 8%.

As for `COC(=O)c1cccc(SC[C@H]2O[C@@H](n3cnc4c(N)ncnc43)[C@H](O)[C@@H]2O)c1` [2(G)(109), methyl 3-({[(2S, 3S, 4R, 5R)-5-(6-amino-9H-purin-9-yl)-1,3,4-dihydroxytetra-hydrofuran-2-yl]methyl}thio)benzoate], the activity at 50 µM worked out at 8% and the “MT-A—10: initial velocity as a percentage of the initial velocity with MTA as substrate” value was found to be 8%.

In the case of `COC(=O)/C=C/c1ccc(SC[C@H]2O[C@@H](n3cnc4c(N)ncnc43)[C@H](O)[C@@H]2O)cc1` [2(G)(110), methyl (2E)-3-[4-({[(2S, 3S, 4R, 5R)-5-(6-amino-9H-purin-9-yl)-dihydroxy-tetrahydrofuran-2-yl]-methyl}thio)phenyl]-acrylate], the activity at 50 µM was found to be 9% and the “MT-A—10: initial velocity as a percentage of the initial velocity with MTA as substrate” value was 15%.

With `COc1cccc(-c2nnc(SC[C@H]3O[C@@H](n4cnc5c(N)ncnc54)[C@H](O)[C@@H]3O)n2C)c1` [2(G)(111), (2R, 3R, 4S, 5S)-2-(6-amino-9H-purin-9-yl)-5-({[5-(3-methoxyphenyl)-4-methyl-4H-1,2,4-triazol-3-yl]thio}-methyl)tetrahydrofuran-3,4-diol], the activity at 50 µM was 4% and the “MT-A—10: initial velocity as a percentage of the initial velocity with MTA as substrate” value turned out to be 8%.

On to `Nc1ncnc2c1ncn2[C@@H]1O[C@H](CSc2nccc(-c3ccco3)n2)[C@@H](O)[C@H]1O` [2(G)(112), (2R, 3R, 4S, 5S)-2-(6-amino-9H-purin-9-yl)-5-({[4-(2-furyl)pyrimidin-2-yl]thio}methyl)tetrahydro-furan-3,4-diol], for which the activity at 50 µM stood at 10% and the “MT-A—10: initial velocity as a percentage of the initial velocity with MTA as substrate” value was 17%.

With `Cn1c(SC[C@H]2O[C@@H](n3cnc4c(N)ncnc43)[C@H](O)[C@@H]2O)nc2ccccc21` [2(G)(113), (2R, 3R, 4S, 5S)-2-(6-amino-9H-purin-9-yl)-5-{[(1-methyl-1H-benzimidazol-2-yl)thio]-methyl}tetrahydro-furan-3,4-diol], the activity at 50 µM stood at 43% and the “MT-A—10: initial velocity as a percentage of the initial velocity with MTA as substrate” value turned out to be 48%.
